The values below come from patent publication US9409908B2 (priority 2012, dated 2016).

Assay [1] deals with purified human plasma kallikrein (Homo sapiens (Human), UniProt P03952). Kind of assay: biochemical. Particulars: read-out: Plasma Kallikrein Ki. The class given is biochemical.
The target in assay [2] is purified human Factor XIa (Homo sapiens (Human), UniProt P03951). Kind of assay: biochemical. Particulars: read-out: Factor XIa Ki. The class given is biochemical.

Structures are written as SMILES. Where a name gives a salt, the structure may show the parent alone.

purified human plasma kallikrein, sequence (P03952 whole entry, looked up): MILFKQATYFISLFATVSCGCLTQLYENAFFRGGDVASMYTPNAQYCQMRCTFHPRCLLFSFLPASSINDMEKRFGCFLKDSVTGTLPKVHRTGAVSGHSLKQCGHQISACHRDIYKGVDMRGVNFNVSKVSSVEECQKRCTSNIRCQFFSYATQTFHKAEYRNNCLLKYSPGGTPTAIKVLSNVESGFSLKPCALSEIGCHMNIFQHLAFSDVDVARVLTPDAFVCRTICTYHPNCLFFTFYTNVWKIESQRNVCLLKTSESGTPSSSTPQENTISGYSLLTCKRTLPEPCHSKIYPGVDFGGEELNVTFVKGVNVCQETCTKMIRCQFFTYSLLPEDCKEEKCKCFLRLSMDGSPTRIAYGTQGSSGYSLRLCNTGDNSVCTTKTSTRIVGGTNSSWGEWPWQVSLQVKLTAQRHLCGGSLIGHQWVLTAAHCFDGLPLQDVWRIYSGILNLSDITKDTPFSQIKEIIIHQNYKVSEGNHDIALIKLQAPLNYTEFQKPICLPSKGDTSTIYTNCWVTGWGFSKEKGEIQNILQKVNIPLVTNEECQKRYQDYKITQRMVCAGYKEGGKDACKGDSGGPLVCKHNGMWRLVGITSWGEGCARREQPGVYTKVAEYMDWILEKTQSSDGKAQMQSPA
purified human plasma kallikrein, sequence (P03952 whole entry partner, looked up): as the sequence (P03952 whole entry, looked up) above
purified human Factor XIa, sequence (P03951 whole entry, looked up): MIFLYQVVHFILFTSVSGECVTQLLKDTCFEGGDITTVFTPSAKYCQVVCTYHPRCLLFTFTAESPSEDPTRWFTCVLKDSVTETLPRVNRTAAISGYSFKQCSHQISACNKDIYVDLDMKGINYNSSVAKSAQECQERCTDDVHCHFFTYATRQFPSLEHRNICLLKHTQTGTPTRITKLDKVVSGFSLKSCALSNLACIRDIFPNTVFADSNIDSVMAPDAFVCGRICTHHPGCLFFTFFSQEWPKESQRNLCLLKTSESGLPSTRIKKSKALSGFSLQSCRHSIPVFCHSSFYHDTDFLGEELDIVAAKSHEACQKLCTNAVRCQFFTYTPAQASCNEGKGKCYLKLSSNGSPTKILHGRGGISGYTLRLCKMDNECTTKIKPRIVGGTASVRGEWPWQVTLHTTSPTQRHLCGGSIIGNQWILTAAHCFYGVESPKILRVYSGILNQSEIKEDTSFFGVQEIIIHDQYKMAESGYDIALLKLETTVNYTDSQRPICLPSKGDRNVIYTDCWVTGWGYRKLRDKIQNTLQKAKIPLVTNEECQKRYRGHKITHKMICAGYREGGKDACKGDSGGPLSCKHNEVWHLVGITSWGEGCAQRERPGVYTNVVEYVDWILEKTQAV
purified human Factor XIa, sequence (P03951 whole entry partner, looked up): as the sequence (P03951 whole entry, looked up) above

On to `C[C@@H]1CCC[C@H](N2CCC(c3c(C#N)ccc(Cl)c3F)=CC2=O)c2cc(ccn2)-c2cc(F)ccc2NC1=O` [Example 150, 4-chloro-3-fluoro-2-{1-[(10R,14S)-4-fluoro-10-methyl-9-oxo-8,16-diazatricyclo[13.3.1.0^2,7]nonadeca-1(19),2(7),3,5,15,17-hexaen-14-yl]-6-oxo-1,2,3,6-tetrahydropyridin-4-yl}benzonitrile], for which the results for the Ki in assay [1] and in assay [2] were 2.27 nM and 0.99 nM, respectively.
`COC(=O)Nc1ccc2c(c1)C(=O)NCCCCC[C@H](N1CCC(c3c(F)ccc(Cl)c3F)=CC1=O)c1cc-2ccn1` [Example 152, Methyl N-[(15S)-15-[4-(3-chloro-2,6-difluorophenyl)-6-oxo-1,2,3,6-tetrahydropyridin-1-yl]-8-oxo-9,17-diazatricyclo[14.3.1.0^2,7]icosa-1(20),2(7),3,5,16,18-hexaen-5-yl]carbamate, TFA salt]: the Ki was found to be 24.3 nM in assay [1] and 25.6 nM in assay [2].
In the same order, the values of `COC(=O)Nc1ccc2c(c1)NC(=O)[C@H](C)CCC[C@H](N1CCC(c3ccnc(N)c3)=CC1=O)c1cc-2ccn1` [Example 154, Methyl N-[(10R,14S)-14-[4-(2-aminopyridin-4-yl)-6-oxo-1,2,3,6-tetrahydropyridin-1-yl]-10-methyl-9-oxo-8,16-diazatricyclo[13.3.1.0^2,7]nonadeca-1(19),2,4,6,15,17-hexaen-5-yl]carbamate, 2 TFA salt] are 118 nM and 23.6 nM.
Consider `COC(=O)Nc1ccc2c(c1)NC(=O)[C@H](C)CCC[C@H](N1CCC(C3CCNCC3)=CC1=O)c1cc-2ccn1` [Example 155, Methyl N-[(10R,14S)-10-methyl-9-oxo-14-[6-oxo-4-(piperidin-4-yl)-1,2,3,6-tetrahydropyridin-1-yl]-8,16-diazatricyclo[13.3.1.0^2,7]nonadeca-1(19),2,4,6,15,17-hexaen-5-yl]carbamate, 2 TFA salt], for which the Ki in assay [1] stood at 199 nM; in assay [2], 4.88 nM.
Taken in the same sequence, the figures for `COC(=O)Nc1ccc2c(c1)NC(=O)[C@H](C)CCC[C@H](N1CCC(c3cccc(Cl)n3)=CC1=O)c1cc-2ccn1` [Example 157, Methyl N-[(10R,14S)-14-[4-(6-chloropyridin-2-yl)-6-oxo-1,2,3,6-tetrahydropyridin-1-yl]-10-methyl-9-oxo-8,16-diazatricyclo[13.3.1.0^2,7]nonadeca-1(19),2,4,6,15,17-hexaen-5-yl]carbamate, 2 TFA salt] were 108 nM and 74.9 nM.
Take `COC(=O)Nc1ccc2c(c1)NC(=O)[C@H](C)CCC[C@H](N1CCC(C3CCCCN3C)=CC1=O)c1cc-2ccn1` (stereo partly drawn) [Example 158, Methyl N-[(10R,14S)-10-methyl-14-[4-(1-methylpiperidin-2-yl)-6-oxo-1,2,3,6-tetrahydropyridin-1-yl]-9-oxo-8,16-diazatricyclo[13.3.1.0^2,7]nonadeca-1(19),2,4,6,15,17-hexaen-5-yl]carbamate, 2 TFA salt]: the figures for the Ki in assay [1] and in assay [2] were 10900 nM and greater than 404 nM, respectively.
On to `COC(=O)Nc1ccc2c(c1)NC(=O)[C@H](C)CCC[C@H](N1CCC(C3CCCC(C)C3)=CC1=O)c1cc-2ccn1` (stereo partly drawn) [Example 159, Methyl N-[(10R,14S)-10-methyl-14-[4-(3-methylcyclohexyl)-6-oxo-1,2,3,6-tetrahydropyridin-1-yl]-9-oxo-8,16-diazatricyclo[13.3.1.0^2,7]nonadeca-1(19),2,4,6,15,17-hexaen-5-yl]carbamate, TFA salt (diastereomeric isomers)], for which the Ki was determined as 58.9 nM in assay [1] and 63.2 nM in assay [2].
Taken in the same sequence, the figures for `COC(=O)Nc1ccc2c(c1)NC(=O)[C@H](C)CCC[C@H](N1CCC(c3c(Br)ccc(Cl)c3F)=CC1=O)c1cccc-2c1` [Example 161, Methyl N-[(10R,14S)-14-[4-(6-bromo-3-chloro-2-fluorophenyl)-6-oxo-1,2,3,6-tetrahydropyridin-1-yl]-10-methyl-9-oxo-8-azatricyclo[13.3.1.0^2,7]nonadeca-1(19),2,4,6,15,17-hexaen-5-yl]carbamate] were 21.6 nM and 0.59 nM.
Taken in the same sequence, the figures for `C[C@@H]1CCC[C@H](N2CCC(c3c(F)ccc(Cl)c3F)=CC2=O)c2cccc(c2)-c2ccccc2NC1=O` [Example 162, (10R,14S)-14-[4-(3-chloro-2,6-difluorophenyl)-6-oxo-1,2,3,6-tetrahydropyridin-1-yl]-10-methyl-8-azatricyclo[13.3.1.0^2,7]nonadeca-1(19),2,4,6,15,17-hexaen-9-one] were 125 nM and 76.5 nM.
In the same order, the values of `COC(=O)c1ccc2c(c1)-c1cccc(c1)[C@@H](N1CCC(c3c(Br)ccc(Cl)c3F)=CC1=O)CCC[C@@H](C)C(=O)N2` [Example 163, Methyl (10R,14S)-14-[4-(6-bromo-3-chloro-2-fluorophenyl)-6-oxo-1,2,3,6-tetrahydropyridin-1-yl]-10-methyl-9-oxo-8-azatricyclo[13.3.1.0^2,7]nonadeca-1(19),2,4,6,15,17-hexaene-4-carboxylate] are 224 nM and greater than 398 nM.
On to `COC(=O)c1ccc2c(c1)-c1cccc(c1)[C@@H](N1CCC(c3c(F)ccc(Cl)c3F)=CC1=O)CCC[C@@H](C)C(=O)N2` [Example 164, Methyl (10R,14S)-14-[4-(3-chloro-2,6-difluorophenyl)-6-oxo-1,2,3,6-tetrahydropyridin-1-yl]-10-methyl-9-oxo-8-azatricyclo[13.3.1.0^2,7]nonadeca-1(19),2,4,6,15,17-hexaene-4-carboxylate], for which the Ki in assay [1] was 442 nM; in assay [2], greater than 398 nM.
Taken in the same sequence, the figures for `COC(=O)c1ccc2c(c1)-c1cccc(c1)[C@H](N1CCC(c3c(F)ccc(Cl)c3F)=CC1=O)CCC[C@@H](C)C(=O)N2` [Example 165, Methyl (10R,14R)-14-[4-(3-chloro-2,6-difluorophenyl)-6-oxo-1,2,3,6-tetrahydropyridin-1-yl]-10-methyl-9-oxo-8-azatricyclo[13.3.1.0^2,7]nonadeca-1(19),2,4,6,15,17-hexaene-4-carboxylate] were 9470 nM and greater than 398 nM.
As for `C[C@@H]1CCC[C@H](N2CCC(c3c(F)ccc(Cl)c3F)=CC2=O)c2cccc(c2)-c2cc(C(=O)O)ccc2NC1=O` [Example 166, (10R,14S)-14-[4-(3-chloro-2,6-difluorophenyl)-6-oxo-1,2,3,6-tetrahydropyridin-1-yl]-10-methyl-9-oxo-8-azatricyclo[13.3.1.0^2,7]nonadeca-1(19),2,4,6,15,17-hexaene-4-carboxylic acid], the Ki in assay [1] was 113 nM; in assay [2], 6.38 nM.
Taken in the same sequence, the figures for `C[C@@H]1CCC[C@H](N2CCC(c3c(Br)ccc(Cl)c3F)=CC2=O)c2cccc(c2)-c2cc(C(=O)O)ccc2NC1=O` [Example 167, (10R,14S)-14-[4-(6-bromo-3-chloro-2-fluorophenyl)-6-oxo-1,2,3,6-tetrahydropyridin-1-yl]-10-methyl-9-oxo-8-azatricyclo[13.3.1.0^2,7]nonadeca-1(19),2,4,6,15,17-hexaene-4-carboxylic acid] were 20.1 nM and 0.81 nM.
On to `COC(=O)c1ccc2c(c1)-c1cccc(c1)[C@@H](N1CCC(c3c(C#N)ccc(C#N)c3F)=CC1=O)CCC[C@@H](C)C(=O)N2` [Example 168, Methyl (10R,14S)-14-[4-(3,6-dicyano-2-fluorophenyl)-6-oxo-1,2,3,6-tetrahydropyridin-1-yl]-10-methyl-9-oxo-8-azatricyclo[13.3.1.0^2,7]nonadeca-1(18),2,4,6,15(19),16-hexaene-4-carboxylate], for which the Ki is 1920 nM in assay [1] and greater than 417 nM in assay [2].
Taken in the same sequence, the figures for `COC(=O)c1ccc2c(c1)-c1cccc(c1)[C@@H](N1CCC(c3cccc(Cl)c3F)=CC1=O)CCC[C@@H](C)C(=O)N2` [Example 169, Methyl (10R,14S)-14-[4-(3-chloro-2-fluorophenyl)-6-oxo-1,2,3,6-tetrahydropyridin-1-yl]-10-methyl-9-oxo-8-azatricyclo[13.3.1.0^2,7]nonadeca-1(18),2,4,6,15(19),16-hexaene-4-carboxylate] were 768 nM and greater than 417 nM.
In the same order, the values of `COC(=O)c1ccc2c(c1)-c1cccc(c1)[C@@H](N1CCC(c3c(C#N)ccc(Cl)c3F)=CC1=O)CCC[C@@H](C)C(=O)N2` [Example 170, Methyl (10R,14S)-14-[4-(3-chloro-6-cyano-2-fluorophenyl)-6-oxo-1,2,3,6-tetrahydropyridin-1-yl]-10-methyl-9-oxo-8-azatricyclo[13.3.1.0^2,7]nonadeca-1(18),2,4,6,15(19),16-hexaene-4-carboxylate] are 7.73 nM and 46.6 nM.
`COC(=O)Nc1ccc2c(c1)NC(=O)[C@H](C)CCC[C@H](N1CCC(c3c(C(C)=O)ccc(Cl)c3F)=CC1=O)c1cccc-2c1` [Example 171, Methyl N-[(10R,14S)-14-[4-(6-acetyl-3-chloro-2-fluorophenyl)-6-oxo-1,2,3,6-tetrahydropyridin-1-yl]-10-methyl-9-oxo-8-azatricyclo[13.3.1.0^2,7]nonadeca-1(18),2,4,6,15(19),16-hexaen-5-yl]carbamate]: the Ki in assay [1] came out at 8.87 nM; in assay [2] it was 0.17 nM.
On to `COC(=O)c1ccc2c(c1)-c1cccc(c1)[C@H](N1CCC(c3c(Br)ccc(Cl)c3F)=CC1=O)CCC[C@@H](C)C(=O)N2` [Example 175, Methyl (10R,14R)-14-[4-(6-bromo-3-chloro-2-fluorophenyl)-6-oxo-1,2,3,6-tetrahydropyridin-1-yl]-10-methyl-9-oxo-8-azatricyclo[13.3.1.0^2,7]nonadeca-1(19),2,4,6,15,17-hexaene-4-carboxylate], for which the Ki in assay [1] was 3810 nM; in assay [2] it was greater than 625 nM.
Turning to `COC(=O)Nc1ccc2c(c1)NC(=O)[C@H](C)C(F)CC[C@H](N1CCC(c3c(F)ccc(Cl)c3F)=CC1=O)c1cc-2ccn1` (stereo partly drawn) [Example 180, Methyl N-[(10S,14S)-14-[4-(3-chloro-2,6-difluorophenyl)-6-oxo-1,2,3,6-tetrahydropyridin-1-yl]-11-fluoro-10-methyl-9-oxo-8,16-diazatricyclo[13.3.1.0^2,7]nonadeca-1(19),2(7),3,5,15,17-hexaen-5-yl]carbamate], the values for the Ki in assay [1] and in assay [2] were 2.42 nM and 0.18 nM, respectively.

By Ki is commonly meant a measure of affinity in units of concentration, obtained from inhibition or displacement.
